Source: patent US20200239473A1, “NEW DERIVATIVES OF LICOFELONE” (priority 2015, published 2020)

Experiment: Metabolic stability in minipig intestinal fluid, quantification of licofelone by HPLC/UV
Type: in vitro ADME, Gottingen SPF minipig
Settings: diluted minipig intestinal fluid; result in words
Procedure: Metabolic Stability of NSAID in Minipig Intestinal Fluid—Quantification of Licofelone
Intestinal tissue/fluid and enterocyte samples were taken from a 10 month old, female Gottingen SPF minipig. The body weight was 21 kg. The minipig was fasted for approximately 28 hours before sampling of intestinal fluid/tissues and enterocytes. On the day of sampling, the minipig was weighed and anaesthetised. The animal was killed by exsanguination before the sampling of intestinal fluid. An intestinal segment was ligated at both ends before removal. The isolated tissue was placed in isotonic saline and opened by a longitudinal cut for sampling of intestinal fluid.
The intestinal tissue from each segment was transferred into a Centrifuge Tube, immersed in 10 ml 50mM phosphate buffer, pH 6.8 and frozen at −70° C.
b) Incubation Experiments with Minipig Intestinal Fluid (without FaSSIF) […]
A set of six reference solutions (solvent: 1 vol IF and 4 vol 2% bovine serum albumin in FaSSIF pH 6.5) with licofelone concentrations between 38.0 and 0.19 μg/ml and the solvent without licofelone were analysed in duplicate. The obtained concentration/peak area data pairs were subjected to linear regression analysis and the resulting calibration curve (r^2=0.9999) was used for quantification of licofelone in incubation experiments.

Compound | release of licofelone compared with Examples bearing a hydroxy group or an MMF residue as R
CC1(C)Cc2c(-c3ccccc3)c(-c3ccc(Cl)cc3)c(CC(=O)OCCOCCOCCOCCOC(=O)Cc3c(-c4ccc(Cl)cc4)c(-c4ccccc4)c4n3CC(C)(C)C4)n2C1 [Reference Example 4b, [2-(4-Chloro-phenyl)-6,6-dimethyl-1-phenyl-6,7-dihydro-5H-pyrrolizin-3-yl]acetic acid 2-{2-[2-(2-{2-[2-(4-chloro-phenyl)-6,6-dimethyl-1-phenyl-6,7-dihydro-5H-pyrrolizin-3-yl]-acetoxy}-ethoxy)-ethoxy]-ethoxy}-ethyl ester] | significantly lower
CC1(C)Cc2c(-c3ccccc3)c(-c3ccc(Cl)cc3)c(CC(=O)OCCOC(=O)Cc3c(-c4ccc(Cl)cc4)c(-c4ccccc4)c4n3CC(C)(C)C4)n2C1 [Reference Example 5b, 2-[2-[2-(4-chlorophenyl)-6,6-di-methyl-1-phenyl-5,7-dihydropyrrolizin-3-yl]acetyl]oxyethyl-2-[2-(4-chloro-phenyl)-6,6-dimethyl-1-phenyl-5,7-dihydropyrrolizin-3-yl]acetate] | significantly lower
